# Experimental data as given in PubChem BioAssay (NCI).
#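 Each compound was tested at five concentrations against cells in 96-well plates for 48 hours. TGI is the concentration that stops growth completely.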 *1 amine or outer side, *2 acyl side, *3 side chain or, on linkers, in order; H or OH if unused. Where a SMILES comes first, the peptide text is derived from it. Bridges are numbered along the chain shown (N, C = ends). [ ]: non-standard residue; d: D form. The star is where a group is joined. ξ: configuration not given here. X34 = O=C(C(CCCCNO[*:3])N[*:1])[*:2]; Fmoc = O=C(OCC1c2ccccc2-c2ccccc21)*; ξW = NC(Cc1c[nH]c2ccccc12)C(=O)O; ξP = O=C(O)C1CCCN1
# Key:
# Test in all cases: NCI tumour cell line growth inhibition, 48 h
# COLO 205 colon = test system: COLO 205 colon
# SF-295 CNS = test system: SF-295 CNS
# OVCAR-8 ovarian = test system: OVCAR-8 ovarian
# MDA-N = test system: MDA-N
# U251 CNS = test system: U251 CNS
# SK-MEL-2 melanoma = test system: SK-MEL-2 melanoma
# UACC-62 melanoma = test system: UACC-62 melanoma
# M14 melanoma = test system: M14 melanoma
# MDA-MB-435 = test system: MDA-MB-435
# CCRF-CEM leukemia = test system: CCRF-CEM leukemia
# UO-31 renal = test system: UO-31 renal
# A549 NSCLC = test system: A549 NSCLC
# K-562 leukemia = test system: K-562 leukemia
SMILES,TGI (COLO 205 colon),TGI (SF-295 CNS),TGI (OVCAR-8 ovarian),TGI (MDA-N),TGI (U251 CNS),TGI (SK-MEL-2 melanoma),TGI (UACC-62 melanoma),TGI (M14 melanoma),TGI (MDA-MB-435),TGI (CCRF-CEM leukemia),TGI (UO-31 renal),TGI (A549 NSCLC),TGI (K-562 leukemia)
O=C1C(Cl)=C(N2CCN(C3=C(Cl)C(=O)c4ccccc4C3=O)CC2)C(=O)c2ccccc21,3.1 µM,21.5 µM,3.16 µM,3.29 µM,6.19 µM,3.34 µM,3.29 µM,2.87 µM,3.27 µM,0.718 µM,3.39 µM,28.1 µM,
c1ccc(C2C3=C(Nc4ncnn42)c2ccccc2C3)cc1 (stereo unspecified),25.8 µM,> 100 µM,> 100 µM,,17.7 µM,> 100 µM,> 100 µM,> 100 µM,,> 100 µM,> 100 µM,> 100 µM,> 100 µM
CCCc1cc(=O)c2c(C)c3[nH]c4ccc(Cl)cc4c3c(C)c2[nH]1,3.89 µM,3.96 µM,6.31 µM,3.9 µM,3.65 µM,14.6 µM,,9.52 µM,3.11 µM,5.83 µM,3.34 µM,4.81 µM,
CC1=C2C(=O)NN=C2CCN1c1ccc(Br)cc1,> 100 µM,> 100 µM,> 100 µM,> 100 µM,> 100 µM,> 100 µM,> 100 µM,> 100 µM,> 100 µM,8.26 µM,> 100 µM,> 100 µM,
Brc1ccc(CCNCCN2CCCCC2)cc1,25.6 µM,32.3 µM,30.5 µM,23.8 µM,32.4 µM,34.5 µM,,29.6 µM,18.2 µM,> 100 µM,24.6 µM,30 µM,> 100 µM
COc1ccc(-c2cc(-c3ccco3)c(C#N)c(=S)n2C2OC(COC(C)=O)C(OC(C)=O)C(OC(C)=O)C2OC(C)=O)cc1 (stereo unspecified),16.2 µM,4.65 µM,13 µM,19.2 µM,17.8 µM,,14.4 µM,17.7 µM,28.2 µM,,27.2 µM,24.5 µM,> 100 µM
CCOC(=O)C1Cc2[nH]c3ccccc3c2C(C)C1C (stereo unspecified),32.6 µM,42.3 µM,13.4 µM,,35.1 µM,36 µM,22.7 µM,30.7 µM,,57.4 µM,35.8 µM,34.8 µM,> 100 µM
COc1ccc(-n2c(=O)c3[nH]cnc3n(-c3ccc(OC)cc3)c2=S)cc1,> 100 µM,> 100 µM,> 100 µM,,> 100 µM,> 100 µM,> 100 µM,> 100 µM,> 100 µM,> 100 µM,> 100 µM,> 100 µM,> 100 µM
COc1ccc(N2C(=O)C3c4[nH]c5ccc(OCc6ccccc6)cc5c4C4CCC(C(C)(C)C)CC4C3C2=O)cc1 (stereo unspecified),> 100 µM,> 100 µM,> 100 µM,> 100 µM,60.4 µM,> 100 µM,> 100 µM,> 100 µM,> 100 µM,,,> 100 µM,> 100 µM
O=C(CCCCCCCCC(=O)NN1C(=O)/C(=C\c2ccc(O)c(O)c2)SC1c1ccc(Cl)cc1)NN1C(=O)/C(=C\c2ccc(O)c(O)c2)SC1c1ccc(Cl)cc1 (stereo unspecified),> 100 µM,48.1 µM,34 µM,> 100 µM,> 55.1 µM,> 61.8 µM,60.2 µM,> 100 µM,> 100 µM,,> 55 µM,> 76.8 µM,> 75.9 µM
c1ccc2c(c1)OC(N1CCCC1)c1cnc(N3CCCC3)nc1-2 (stereo unspecified),> 100 µM,82.1 µM,> 100 µM,,> 100 µM,,> 100 µM,> 100 µM,> 100 µM,67.3 µM,87.7 µM,> 100 µM,> 100 µM
OCc1ccc2[n+](c1)CCC1c3ccccc3NC21 (stereo unspecified),> 300 µM,> 300 µM,> 300 µM,,> 300 µM,> 300 µM,> 300 µM,,,> 300 µM,,> 300 µM,> 300 µM
CC(C)(C)C1=C(Br)C(Br)(C(C)(C)C)OP1(=O)c1ccccc1 (stereo unspecified),> 100 µM,> 100 µM,> 100 µM,> 100 µM,> 100 µM,> 100 µM,> 100 µM,> 100 µM,> 100 µM,,> 100 µM,> 100 µM,> 100 µM
Cc1cc(N(CCC#N)CCC#N)ccc1/C=N/NC(=O)c1cc(Cl)ccc1O,> 100 µM,> 100 µM,> 100 µM,> 100 µM,> 100 µM,> 100 µM,> 100 µM,> 100 µM,> 100 µM,> 100 µM,,> 100 µM,
COC(=O)CC(C(C(=O)OC)C(=O)OC)N1C(=O)OCC1c1ccccc1 (stereo unspecified),> 100 µM,> 100 µM,> 100 µM,,> 100 µM,> 100 µM,> 100 µM,> 100 µM,,> 100 µM,> 100 µM,> 100 µM,> 100 µM
NC(=O)CNC(=O)C1CCCN1C(=O)C1CCCCNOC(=O)CC[C@@H](NC(=O)OCC2c3ccccc3-c3ccccc32)C(=O)NC(Cc2c[nH]c3ccccc23)C(=O)N1 (stereo partly specified) (Fmoc-[dE][ξW][X34][ξP]G-NH2; ester 1-3),> 100 µM,> 100 µM,> 100 µM,,> 100 µM,> 100 µM,> 100 µM,> 100 µM,> 100 µM,> 100 µM,> 100 µM,> 100 µM,> 100 µM
COC(=O)C(/C(=N/NC(N)=O)C(=O)Nc1ccc(C)cc1)c1nc2ccc([N+](=O)[O-])cc2[nH]c1=O (stereo unspecified),,> 100 µM,> 100 µM,> 100 µM,> 100 µM,> 100 µM,> 100 µM,> 100 µM,> 100 µM,,,> 100 µM,> 100 µM
Cn1cc2ccccc2c1-c1nc(N)nc(F)n1,> 100 µM,> 100 µM,> 100 µM,,> 100 µM,> 100 µM,,> 100 µM,,> 100 µM,> 100 µM,> 100 µM,> 100 µM
